The values that follow are results of earlier work, collected in paper PMC9923514 (Journal of chemical information and modeling, 2022).

One data set concerns the target ZIKV NS5 RdRp (Zika virus, UniProt A0A024B7W1). The conditions noted are these: for IC50: read-out: NS5 RdRp IC50.
The next data set addresses ZIKV NS2B-NS3pro (Zika virus, UniProt A0A024B7W1). As to conditions: read-out: NS2B-NS3pro IC50; allosteric inhibitor.

ZIKV NS5 RdRp, sequence (A0A024B7W1 2521-3423): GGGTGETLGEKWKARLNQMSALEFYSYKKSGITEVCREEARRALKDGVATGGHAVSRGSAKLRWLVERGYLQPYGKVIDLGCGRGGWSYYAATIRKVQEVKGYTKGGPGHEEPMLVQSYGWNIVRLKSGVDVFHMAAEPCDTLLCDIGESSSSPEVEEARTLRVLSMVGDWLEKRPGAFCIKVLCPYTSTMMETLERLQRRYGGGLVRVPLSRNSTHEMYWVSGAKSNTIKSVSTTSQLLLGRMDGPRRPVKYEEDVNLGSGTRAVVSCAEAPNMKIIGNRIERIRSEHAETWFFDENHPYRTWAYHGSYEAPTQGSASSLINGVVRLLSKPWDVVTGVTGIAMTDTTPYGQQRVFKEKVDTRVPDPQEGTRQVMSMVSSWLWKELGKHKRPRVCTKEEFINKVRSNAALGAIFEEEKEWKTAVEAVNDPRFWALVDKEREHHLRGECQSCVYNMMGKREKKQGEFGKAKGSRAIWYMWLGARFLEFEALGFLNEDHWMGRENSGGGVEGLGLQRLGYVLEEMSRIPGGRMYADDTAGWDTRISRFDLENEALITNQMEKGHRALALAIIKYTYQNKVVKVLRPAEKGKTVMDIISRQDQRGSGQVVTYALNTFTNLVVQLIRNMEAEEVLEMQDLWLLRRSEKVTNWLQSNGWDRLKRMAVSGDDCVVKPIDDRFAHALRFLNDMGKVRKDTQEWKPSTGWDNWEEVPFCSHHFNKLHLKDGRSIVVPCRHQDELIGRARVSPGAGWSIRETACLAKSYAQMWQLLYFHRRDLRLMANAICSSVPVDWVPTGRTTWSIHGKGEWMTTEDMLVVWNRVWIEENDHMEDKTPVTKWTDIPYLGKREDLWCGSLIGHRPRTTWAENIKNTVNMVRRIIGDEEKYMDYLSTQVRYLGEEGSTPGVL
ZIKV NS2B-NS3pro, sequence (A0A024B7W1 1503-1680): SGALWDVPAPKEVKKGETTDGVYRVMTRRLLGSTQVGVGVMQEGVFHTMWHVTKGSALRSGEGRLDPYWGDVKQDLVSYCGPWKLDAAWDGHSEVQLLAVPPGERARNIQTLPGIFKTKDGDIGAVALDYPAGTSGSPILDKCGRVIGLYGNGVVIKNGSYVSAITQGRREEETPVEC
ZIKV NS2B-NS3pro, sequence (A0A024B7W1 1373-1502): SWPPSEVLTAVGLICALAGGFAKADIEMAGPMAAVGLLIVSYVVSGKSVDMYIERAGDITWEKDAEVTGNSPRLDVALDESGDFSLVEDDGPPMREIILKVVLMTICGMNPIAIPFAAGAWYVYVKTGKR

Take `CCCCCOCc1c(Nc2ccc(S(N)(=O)=O)cc2)nc(N2CCOCC2)nc1C(=O)NCCOc1ccccc1` [2-morpholino-5-((pentyloxy)methyl)-N-(2-phenoxyethyl)-6-((4-sulfamoylphenyl)amino)pyrimidine-4-carboxamide]: the IC50 – broadly, the concentration needed to halve the response being measured – at ZIKV NS5 RdRp was 2.4 µM.
Take `Nc1cc(N)c(N=Nc2ccc(S(=O)(=O)Nc3nccs3)cc2)cc1N=Nc1ccc(S(=O)(=O)Nc2nccs2)cc1` [NSC86314]: the IC50 at ZIKV NS2B-NS3pro was 1.12 ± 0.11 µM.
For the molecule `O=C(NC(=S)Nc1ccc(N2CCN(C(=O)c3cccs3)CC2)cc1)c1sc2ccccc2c1Cl` [TBP, 3-chloro-N-[({4-[4-(2-thienylcarbonyl)-1-piperazinyl]phenyl}amino)carbonothioyl]-1-benzothiophene-2-carboxamide], at ZIKV NS5 RdRp, the IC50 was 0.094 µM.
For `O[C@H]1[C@H]2c3cc4c(cc3CN3CCC(=C[C@@H]1O)[C@H]23)OCO4` [lycorine], the “NS5 RdRp inhibition” value at ZIKV NS5 RdRp (at 50 μM) was 60%.
